{"source": "patent US9029337B2", "about": "“Modulation of factor 7 expression” (Isis Pharmaceuticals, Inc., priority 2007, dated 2015)", "type_in_all_cases": "in vivo, mouse", "key": {"murine Factor 7 mRNA": {"test_system": "murine Factor 7 mRNA", "assay": "Single dose pharmacokinetic assay: liver Factor 7 mRNA in BALB/c mice", "details": "single dose 50 mg/kg; for % Inhibition: liver Factor 7 mRNA, BALB/c mice", "procedure": "The half-life and duration of action of ISIS 403102 in mice was evaluated. A group of 27 BALB/c mice was injected with 50 mg/kg of ISIS 403102. Three mice from the group were sacrificed at days 1, 2, 3, 4, 6, 8, 12, 24, and 56 after the single dose of ISIS 403102 was administered. A control group of 3 mice was injected with a single dose of PBS, and mice in this group were sacrificed on day 1. Mice in all groups were sacrificed by cervical dislocation following anesthesia with 150 mg/kg ketamine mixed with 10 mg/kg xylazine administered by intraperitoneal injection. Liver was harvested for RNA analysis and plasma was collected for clotting analysis (PT and aPTT).\nRNA was extracted from liver tissue for real-time RT-PCR analysis of Factor 7. Results are presented as percent inhibition of Factor 7, relative to PBS control. […] Results are presented as percent inhibition of Factor 7, relative to control."}, "BALB/c mice": {"test_system": "BALB/c mice", "assay": "Tail bleeding assay", "details": "mouse, in vivo", "procedure": "Mice not receiving treatment with FeCl3 solution were evaluated in a tail bleeding chamber. Mice were placed into the bleeding chamber two days after the final treatment of ISIS 403102 or PBS. Mice were anesthetized in the chamber with isofluorane and a small piece of tail (approximately 4 mm from the tip) was cut with sterile scissors. The cut tail was immediately placed in a 15 mL Falcon tube filled with approximately 10 mL of 0.9% NaCl buffer solution warmed to 37° C. The blood was collected over the course of 40 minutes. The saline filled tubes were weighed both before and after bleeding.\nTail-bleeding was measured to observe whether treatment with ISIS 403102 or warfarin causes internal hemorrhage in mice. ISIS 403102 and warfarin (Coumadin®) were evaluated in the tail bleeding assay. Six groups of BALB/c mice were treated with 1.25 mg/kg, 2.5 mg/kg, 5 mg/kg, 10 mg/kg, 20 mg/kg, or 40 mg/kg of ISIS 403102, administered subcutaneously twice a week for 3 weeks. An additional 6 groups of BALB/c mice were treated with 0.5 mg/kg, 1 mg/kg, 2 mg/kg, 3 mg/kg, 4 mg/kg, and 5 mg/kg of warfarin, administered intraperioneally daily for 6 days. A separate control group of BALB/c mice was treated with PBS, administered subcutaneously twice a week for 3 weeks.\nTwo days after the final treatment of ISIS 403102, warfarin, or PBS, mice were placed in a tail bleeding chamber. Mice were anesthetized in the chamber with isofluorane and a small piece of tail (approximately 4 mm from the tip) was cut with sterile scissors. The cut tail was immediately placed in a 15 mL Falcon tube filled with approximately 10 mL of 0.9% NaCl buffer solution warmed to 37° C. The blood was collected over the course of 40 minutes. The saline filled tubes were weighed both before and after bleeding.\nISIS 403102 and Apixaban were evaluated in BALB/c mice. In a first group of BALB/c mice, 40 mg/kg of ISIS 403102 was administered subcutaneously twice a week for 3 weeks. An additional 3 groups of BALB/c mice were treated with 5 mg/kg and 10 mg/kg of Apixaban, administered in a single intraperitoneal dose, and 10 mg/kg of Apixaban administered as a single subcutaneous dose. A control group of BALB/c mice was treated with PBS, administered subcutaneously twice a week for 3 weeks.\nTwo days after the final treatment of ISIS 403102 or PBS, mice were placed in a tail bleeding chamber. Mice from the groups treated with Apixaban were analyzed 30 minutes after the single dose. Mice were anesthetized in the chamber with isofluorane and a small piece of tail (approximately 4 mm from the tip) was cut with sterile scissors. The cut tail was immediately placed in a 15 mL Falcon tube filled with approximately 10 mL of 0.9% NaCl buffer solution warmed to 37° C. The blood was collected over the course of 40 minutes. The saline filled tubes were weighed before and after bleeding."}, "platelet factor-4 (PF-4)": {"test_system": "platelet factor-4 (PF-4)", "assay": "Thrombus formation by real-time RT-PCR quantification of PF-4 in the FeCl3 induced venous thrombosis model", "details": "Example 16, BALB/c mice, vena cava"}}, "note": "e = 2'-O-(2-methoxyethyl) (MOE); d = 2'-deoxy (DNA)"}
{"sequence": "CCATAGAACAGCTTCACAGG (sugars from the 5' end e5 d10 e5, backbone and methylation of C not given here) [ISIS 403102]", "values": [{"measurement": "% Inhibition", "setting": "murine Factor 7 mRNA; day 1, relative to PBS control", "value": 61, "unit": "%"}, {"measurement": "% Inhibition", "setting": "murine Factor 7 mRNA; day 2, relative to PBS control", "value": 87, "unit": "%"}, {"measurement": "% Inhibition", "setting": "murine Factor 7 mRNA; day 3, relative to PBS control", "value": 92, "unit": "%"}, {"measurement": "% Inhibition", "setting": "murine Factor 7 mRNA; day 4, relative to PBS control", "value": 92, "unit": "%"}, {"measurement": "% Inhibition", "setting": "murine Factor 7 mRNA; day 6, relative to PBS control", "value": 86, "unit": "%"}, {"measurement": "% Inhibition", "setting": "murine Factor 7 mRNA; day 8, relative to PBS control", "value": 80, "unit": "%"}, {"measurement": "% Inhibition", "setting": "murine Factor 7 mRNA; day 12, relative to PBS control", "value": 72, "unit": "%"}, {"measurement": "% Inhibition", "setting": "murine Factor 7 mRNA; day 24, relative to PBS control", "value": 11, "unit": "%"}, {"measurement": "% Inhibition", "setting": "murine Factor 7 mRNA; day 56, relative to PBS control", "value": 0, "unit": "%"}, {"measurement": "duration of action", "setting": "murine Factor 7 mRNA", "value": "at least 24 days"}, {"measurement": "peak effect", "setting": "murine Factor 7 mRNA", "value": "~4", "unit": "days"}, {"measurement": "inhibition of Factor 7 mRNA", "setting": "murine Factor 7 mRNA; day 4", "value": 92, "unit": "%"}, {"measurement": "inhibition of Factor 7 mRNA", "setting": "murine Factor 7 mRNA; day 24", "value": 11, "unit": "%"}, {"measurement": "Factor 7 mRNA levels", "setting": "murine Factor 7 mRNA; day 56", "value": "equal to that of the PBS control"}, {"measurement": "amount of bleeding in comparison to PBS treated mice", "setting": "BALB/c mice", "value": "slight decrease in the amount of bleeding"}, {"measurement": "bleeding as compared to PBS control mice", "setting": "BALB/c mice", "value": "did not significantly affect bleeding"}, {"measurement": "amount of bleeding in comparison to PBS treated mice", "setting": "BALB/c mice; 50 mg/kg", "value": "Bleeding was the same"}, {"measurement": "Blood (g), tail bleeding", "setting": "BALB/c mice; sc, 40 mg/kg", "value": 0.10, "unit": "g"}, {"measurement": "bleeding compared to PBS treated mice", "setting": "BALB/c mice; sc, 40 mg/kg", "value": "less bleeding than PBS treated mice"}, {"measurement": "PF-4 (percentage of PF-4 as compared to the PBS-treated control groups)", "setting": "platelet factor-4 (PF-4); 1 mg/kg s.c. twice a week for 3 weeks", "value": 120, "unit": "%"}, {"measurement": "PF-4 (percentage of PF-4 as compared to the PBS-treated control groups)", "setting": "platelet factor-4 (PF-4); 3 mg/kg s.c. twice a week for 3 weeks", "value": 112, "unit": "%"}]}
